Measured values from US8420675B2, “Aminotetrahydroindazoloacetic acids” (Hoffmann-La Roche Inc., priority 2008, dated 2013).

Molecular target: T1, human CRTH2 (Homo sapiens, UniProt Q9Y5Y4)
T1 construct: expressed in transfected cells
T1 sequence (Q9Y5Y4 1-395): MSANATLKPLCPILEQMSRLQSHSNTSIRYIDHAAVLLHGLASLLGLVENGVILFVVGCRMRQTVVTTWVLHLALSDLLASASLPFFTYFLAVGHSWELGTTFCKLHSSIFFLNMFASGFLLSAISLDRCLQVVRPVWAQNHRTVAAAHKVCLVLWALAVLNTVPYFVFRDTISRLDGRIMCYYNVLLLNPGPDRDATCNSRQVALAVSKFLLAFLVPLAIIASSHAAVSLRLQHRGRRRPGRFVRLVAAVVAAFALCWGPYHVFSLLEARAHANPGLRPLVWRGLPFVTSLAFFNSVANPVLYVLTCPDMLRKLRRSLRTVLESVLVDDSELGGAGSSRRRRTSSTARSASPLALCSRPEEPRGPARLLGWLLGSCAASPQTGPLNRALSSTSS
Test: Human CRTH2 Receptor Binding Assay (whole cell, [3H]ramatroban competition)
Conditions: CHO-K1 cells expressing human CRTH2 and G-alpha16; 20 nM [3H]ramatroban; 1 hour, room temperature
Excerpt: A whole cell receptor binding assay using [^3H]ramatroban as the competing radioactive ligand was employed to evaluate the compound binding activity to human CRTH2. The radioactive ligand [^3H]ramatroban was synthesized according to Sugimoto et. al. (Eur. J. Pharmacol. 524, 30-37, 2005) to a specific activity of 42 Ci/mmol.
A cell line stably expressing human CRTH2 was established by transfecting CHO-K1 cells with two mammalian expression vectors that harbored human CRTH2 and G-alpha16 cDNAs, respectively, using FuGene® 6 transfection reagent (from Roche). Stable clones expressing CRTH2 were selected by staining each clone with BM16 (BD Pharmingen™ from BD Biosciences, a division of Becton, Dickinson and Company), which is a rat monoclonal antibody to human CRTH2. The cells were maintained as monolayer cultures in Ham's F-12 medium containing 10% fetal bovine serum, 100 units/mL penicillin, 100 μg/mL streptomycin, 2 mM glutamine, 0.5 mg/mL G418 (geneticin) for CRTH2, and 0.2 mg/mL hygromycin-B (for G-alpha 16). For whole cell receptor binding assay, the monolayer cells were rinsed once with PBS (phosphate buffered saline), dissociated using ethylenediaminetetraacetate (Versene™ EDTA Lonza Inc.), and suspended in PBS containing 10 mM MgCl2 and 0.06% BSA (bovine serum albumin) at 1.5×10^6 cells/mL.
The binding reactions (0.2 mL) were performed in 96-well plates at room temperature in PBS containing 1.5×10^5 cells, 10 mM MgCl2, 0.06% BSA, 20 nM [^3H]ramatroban, and test compound at various concentrations. After 1 hour of binding reactions, the cells were harvested on GF™/B filter microplates (microtiter plates with embedded glass fiber from PerkinElmer, Inc.) and washed 5 times with PBS using a Filtermate™ Harvester (a cell harvester that harvests and washes cells from microplates from PerkinElmer, Inc.). The radioactivities bound to the cells were determined using a microplate scintillation counter (TopCount® NXT, from PerkinElmer, Inc.) after adding 50 μL of Microscint™ 20 scintillation fluid (from PerkinElmer, Inc.) to each well of the filter plates. The radioactivity from non-specific binding was determined by replacing compound with 10 μM of 15(R)-15-methyl PGD2 (from Cayman Chemical Company) in the reaction mixtures. The radioactivity bound to the cells in the absence of compound (total binding) was determined by replacing compound with 0.25% of DMSO (dimethyl sulfoxide) in the reaction mixture. Specific binding data were obtained by subtracting the radioactivity of non-specific binding from each binding data.
The IC50 value is defined as the concentration of the tested compound that is required for 50% inhibition of total specific binding. In order to calculate the IC50 value, the percent inhibition data were determined for 7 concentrations for each compound. The percent inhibition for a compound at each concentration was calculated according to the following formula, [1-(specific binding in the presence of compound)/(total specific binding)]x100. The IC50 value was then obtained by fitting the percent inhibition data to a sigmoidal dose-response (4 parameter logistic) model in the XLfit® software Excel add-in program [from ID Business Solutions Ltd., model 205, where F(x)=(A+(B−A)/(1+((C/x)^D)))].

| IC50 | SMILES |
| --- | --- |
| 5.6 nM | O=C(O)CCn1ncc2c1CCCC2NS(=O)(=O)c1ccc(-c2ccccc2)cc1 (single isomer, unassigned) [Example 10-30a, 3-[4-(biphenyl-4-sulfonylamino)-4,5,6,7-tetrahydro-indazol-1-yl]-propionic acid] |
| 27.7 nM | O=C(O)Cn1ncc2c1CCC[C@H]2NS(=O)(=O)c1ccc(Oc2ccccc2Cl)cc1 [Example 1-1a, {(R)-4-[4-(2-Chloro-phenoxy)-benzenesulfonylamino]-4,5,6,7-tetrahydro-indazol-1-yl}-acetic acid] |
| 93.6 nM | O=C(O)Cn1ncc2c1CCC[C@H]2NS(=O)(=O)c1ccc(-c2ccccc2)cc1 [Example 1-2a, [(R)-4-(Biphenyl-4-sulfonylamino)-4,5,6,7-tetrahydro-indazol-1-yl]-acetic acid] |
| 199 nM | O=C(O)Cn1ncc2c1CCCC2NS(=O)(=O)c1ccc(Oc2ccccc2)cc1 (centres unmarked) [Example 1-3a, [4-(4-Phenoxy-benzenesulfonylamino)-4,5,6,7-tetrahydro-indazol-1-yl]-acetic acid] |
| 244 nM | Cc1nnc(-c2cccc(S(=O)(=O)NC3CCCc4c3cnn4CC(=O)O)c2)o1 (centres unmarked) [Example 1-4a, {4-[3-(5-Methyl-[1,3,4]oxadiazol-2-yl)-benzenesulfonylamino]-4,5,6,7-tetrahydro-indazol-1-yl}-acetic acid] |
| 164 nM | O=C(O)Cn1ncc2c1CCCC2NS(=O)(=O)c1cccc(Oc2ccccc2)c1 (centres unmarked) [Example 1-5a, [4-(3-Phenoxy-benzenesulfonylamino)-4,5,6,7-tetrahydro-indazol-1-yl]-acetic acid] |
| 475 nM | O=C(O)CCn1ncc2c1CCCC2NS(=O)(=O)c1ccc(-c2ccccc2)cc1 (centres unmarked) [Example 1-6a, 3-[4-(Biphenyl-4-sulfonylamino)-4,5,6,7-tetrahydro-indazol-1-yl]-propionic acid] |
| 7.2 nM | O=C(O)Cn1ncc2c1CCCC2NS(=O)(=O)c1cnc(Oc2ccc(Cl)cc2)c(Br)c1 (centres unmarked) [Example 2-1a, {4-[5-Bromo-6-(4-chloro-phenoxy)-pyridine-3-sulfonylamino]-4,5,6,7-tetrahydro-indazol-1-yl}-acetic acid] |
| 31.1 nM | O=C(O)Cn1ncc2c1CCCC2NS(=O)(=O)c1cnc(Oc2ccc(F)cc2)c(Br)c1 (centres unmarked) [Example 2-2a, {4-[5-Bromo-6-(4-fluoro-phenoxy)-pyridine-3-sulfonylamino]-4,5,6,7-tetrahydro-indazol-1-yl}-acetic acid] |
| 19.4 nM | O=C(O)Cn1ncc2c1CCCC2NS(=O)(=O)c1cnc(Oc2cccc(Cl)c2)c(Br)c1 (centres unmarked) [Example 2-3a, {4-[5-Bromo-6-(3-chloro-phenoxy)-pyridine-3-sulfonylamino]-4,5,6,7-tetrahydro-indazol-1-yl}-acetic acid] |
| 10.3 nM | N#Cc1ccc(Oc2ncc(S(=O)(=O)NC3CCCc4c3cnn4CC(=O)O)cc2Br)cc1 (centres unmarked) [Example 2-4a, {4-[5-Bromo-6-(4-cyano-phenoxy)-pyridine-3-sulfonylamino]-4,5,6,7-tetrahydro-indazol-1-yl}-acetic acid] |
| 101 nM | CS(=O)(=O)c1ccc(Oc2ncc(S(=O)(=O)NC3CCCc4c3cnn4CC(=O)O)cc2Br)cc1 (centres unmarked) [Example 2-5a, {4-[5-Bromo-6-(4-methanesulfonyl-phenoxy)-pyridine-3-sulfonylamino]-4,5,6,7-tetrahydro-indazol-1-yl}-acetic acid] |
| 26.4 nM | Cc1ccc(Oc2ncc(S(=O)(=O)NC3CCCc4c3cnn4CC(=O)O)cc2Br)cc1 (centres unmarked) [Example 2-6a, [4-(5-Bromo-6-p-tolyloxy-pyridine-3-sulfonylamino)-4,5,6,7-tetrahydro-indazol-1-yl]-acetic acid] |
| 393 nM | O=C(O)Cn1ncc2c1CCCC2NS(=O)(=O)c1cnc(Oc2ccc(C(F)(F)F)cc2)c(Br)c1 (centres unmarked) [Example 2-7a, {4-[5-Bromo-6-(4-trifluoromethyl-phenoxy)-pyridine-3-sulfonylamino]-4,5,6,7-tetrahydro-indazol-1-yl}-acetic acid] |
| 7.8 nM | O=C(O)Cn1ncc2c1CCC[C@H]2NS(=O)(=O)c1cnc(Oc2ccc(Cl)cc2)c(Br)c1 [Example 2-8a, {(R)-4-[5-Bromo-6-(4-chloro-phenoxy)-pyridine-3-sulfonylamino]-4,5,6,7-tetrahydro-indazol-1-yl}-acetic acid] |
| 8.4 nM | O=C(O)Cn1ncc2c1CCC[C@H]2NS(=O)(=O)c1cnc(Oc2ccccc2Cl)c(Br)c1 [Example 2-9a, {(R)-4-[5-Bromo-6-(2-chloro-phenoxy)-pyridine-3-sulfonylamino]-4,5,6,7-tetrahydro-indazol-1-yl}-acetic acid] |
| 196 nM | O=C(O)Cn1ncc2c1CCCC2NS(=O)(=O)c1cnc(Oc2ccc(F)c(F)c2)c(Br)c1 (centres unmarked) [Example 2-10a, {4-[5-Bromo-6-(3,4-difluoro-phenoxy)-pyridine-3-sulfonylamino]-4,5,6,7-tetrahydro-indazol-1-yl}-acetic acid] |
| 18.2 nM | O=C(O)CCn1ncc2c1CCC[C@H]2NS(=O)(=O)c1cnc(Oc2ccccc2Cl)c(Br)c1 [Example 2-11a, 3-{(R)-4-[5-Bromo-6-(2-chloro-phenoxy)-pyridine-3-sulfonylamino]-4,5,6,7-tetrahydro-indazol-1-yl}-propionic acid] |
| 30.3 nM | O=C(O)CCn1ncc2c1CCC[C@H]2NS(=O)(=O)c1cnc(Oc2ccc(Cl)cc2)c(Br)c1 [Example 2-12a, 3-{(R)-4-[5-Bromo-6-(4-chloro-phenoxy)-pyridine-3-sulfonylamino]-4,5,6,7-tetrahydro-indazol-1-yl}-propionic acid] |
| 34.9 nM | Cc1cc(S(=O)(=O)NC2CCCc3c2cnn3CC(=O)O)cnc1Oc1ccc(Cl)cc1 (centres unmarked) [Example 3-1a, {4-[6-(4-Chloro-phenoxy)-5-methyl-pyridine-3-sulfonylamino]-4,5,6,7-tetrahydro-indazol-1-yl}-acetic acid] |
| 158 nM | O=C(O)Cn1ncc2c1CCCC2NS(=O)(=O)c1ccc(Oc2ccc(F)cc2)nc1 (centres unmarked) [Example 4-1a, {4-[6-(4-Fluoro-phenoxy)-pyridine-3-sulfonylamino]-4,5,6,7-tetrahydro-indazol-1-yl}-acetic acid] |
| 14.6 nM | O=C(O)Cn1ncc2c1CCC[C@H]2NS(=O)(=O)c1ccc(Oc2ccccc2Cl)c(Cl)c1 [Example 5-1a, {(R)-4-[3-Chloro-4-[2-chloro-phenoxy)-benzenesulfonylamino]-4,5,6,7-tetrahydro-indazol-1-yl}-acetic acid] |
| 202 nM | O=C(O)Cn1ncc2c1CCCC2NS(=O)(=O)c1ccc(Oc2cccc(Cl)c2)cc1 (centres unmarked) [Example 5-2a, {4-[4-(3-Chloro-phenoxy)-benzenesulfonylamino]-4,5,6,7-tetrahydro-indazol-1-yl}-acetic acid] |
| 60.6 nM | O=C(O)Cn1ncc2c1CCCC2NS(=O)(=O)c1ccc(Oc2ccc(Cl)cc2)cc1 (centres unmarked) [Example 5-3a, {4-[4-(4-Chloro-phenoxy)-benzenesulfonylamino]-4,5,6,7-tetrahydro-indazol-1-yl}-acetic acid] |
| 35.9 nM | O=C(O)Cn1ncc2c1CCCC2NS(=O)(=O)c1cc(Oc2ccccc2)cc(C(F)(F)F)c1 (centres unmarked) [Example 5-4a, [4-(3-Phenoxy-5-trifluoromethyl-benzenesulfonylamino)-4,5,6,7-tetrahydro-indazol-1-yl]-acetic acid] |
| 6.9 nM | O=C(O)Cn1ncc2c1CCC[C@H]2NS(=O)(=O)c1ccc(Oc2ccccc2Cl)cc1Cl [Example 5-5a, {(R)-4-[2-Chloro-4-(2-chloro-phenoxy)-benzenesulfonylamino]-4,5,6,7-tetrahydro-indazol-1-yl}-acetic acid] |
